Where two headings read alike, the source gives them in different places.
Columns and labels:
[1] = tested on: lymphocyte; experiment: Drug lymphocyte stimulation test in the two patients with erythema multiforme; assay type: cell-based, human; conditions: both patients with erythema multiforme of cohort 1
[2] = assay type: in vivo, human
[3] = Pharmacokinetics of sorafenib in plasma; assay type: in vivo; conditions: human, oral, 400 mg; for Cmax: C max
[4] = Dose-limiting toxicity; assay type: in vivo, human; conditions: in combination with carboplatin AUC 5 mg min mL^−1 and paclitaxel 200 mg/m^2, Japanese patients with advanced NSCLC
[5] = sorafenib at 400 mg twice daily
[6] = Cohort 2, dose-adjusted ratio cycle 2 relative to cycle 1

N.N.O=C([O-])C1(C(=O)[O-])CCC1.[Pt+2] [carboplatin]
drug lymphocyte stimulation test result [1]: negative | effect of sorafenib on the pharmacokinetics [2, 5]: no effect

CC(=O)O[C@H]1C(=O)[C@@]2(C)[C@H]([C@H](OC(=O)c3ccccc3)[C@]3(O)C[C@H](OC(=O)[C@H](O)[C@@H](NC(=O)c4ccccc4)c4ccccc4)C(C)=C1C3(C)C)[C@]1(OC(C)=O)CO[C@@H]1[C@@H](O)[C@@H]2O [6-hydroxy-paclitaxel]
increases in the AUC and C max values after sorafenib administration [2, 5]: not statistically significant

CC(=O)O[C@H]1C(=O)[C@@]2(C)[C@H]([C@H](OC(=O)c3ccccc3)[C@]3(O)C[C@H](OC(=O)[C@H](O)[C@@H](NC(=O)c4ccccc4)c4ccccc4)C(C)=C1C3(C)C)[C@]1(OC(C)=O)CO[C@@H]1C[C@@H]2O [Paclitaxel]
drug lymphocyte stimulation test result [1]: negative | AUC Ratio [90% CI] [2, 6]: 1.05 [0.88–1.25] | C max Ratio [90% CI] [2, 6]: 1.19 [0.80–1.77] | C max Ratio [90% CI] ([2]; Cohort 2, dose-adjusted ratio cycle 3 relative to cycle 1): 1.39 [0.88–2.21] | increases in the AUC and C max values after sorafenib administration [2, 5]: not statistically significant

CNC(=O)c1cc(Oc2ccc(NC(=O)Nc3ccc(Cl)c(C(F)(F)F)c3)cc2)ccn1 [Sorafenib]
drug lymphocyte stimulation test result [1]: positive | AUC(0-t) ([3]; AUC0–12, Cohort 1, cycle 1, day 2, 400 mg sd (n = 6), geometric mean (% CV)): 18200 ng·h/mL | AUC(0-t) ([3]; AUC0–12, Cohort 2, cycle 1, day 2, 400 mg sd (n = 7), geometric mean (% CV)): 9000 ng·h/mL | AUC(0-t) ([3]; AUC0–12, Cohort 2, cycle 1, day 19, 400 mg od (n = 7), geometric mean (% CV)): 24400 ng·h/mL | AUC(0-t) ([3]; AUC0–12, Cohort 2, cycle 2, day 2, 400 mg sd (n = 6), geometric mean (% CV)): 14600 ng·h/mL | Cmax ([3]; Cohort 1, cycle 1, day 19, 400 mg bid (n = 3), geometric mean (% CV)): 4600 ng/mL | Cmax ([3]; Cohort 2, cycle 1, day 2, 400 mg sd (n = 7), geometric mean (% CV)): 1200 ng/mL | Cmax ([3]; Cohort 2, cycle 1, day 19, 400 mg od (n = 7), geometric mean (% CV)): 3200 ng/mL | Cmax ([3]; Cohort 2, cycle 2, day 19, 400 mg bid (n = 4), geometric mean (% CV)): 5900 ng/mL | half-life ([3]; mean t 1/2, on day 19, across cohorts and cycles): 20.4 to 26.8 h | half-life ([3]; t 1/2, Cohort 1, cycle 1, day 19, 400 mg bid (n = 3), geometric mean (% CV)): 20.4 h | half-life ([3]; t 1/2, Cohort 2, cycle 1, day 19, 400 mg od (n = 7), geometric mean (% CV)): 26.8 h | half-life ([3]; t 1/2, Cohort 2, cycle 2, day 19, 400 mg bid (n = 4), geometric mean (% CV)): 23.9 h | dose of sorafenib confirmed to be feasible [4]: 400 mg once daily

Source: paper PMC2955234 (Investigational New Drugs, 2009)
